Where two headings read alike, the source gives them in different places.
Legend:
Type in all cases: cell-based
[1] = test system: Corynebacterium glutamicum ATCC13032; experiment: Bacterial growth in microscale cultivation, C. glutamicum; settings: relative to control; for activity at 4 µM / activity at 40 µM / activity at 400 µM / activity at 0.4 µM: Corynebacterium glutamicum
How it was run: (§1)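 Inhibitors in DMSO were added to the medium, at a maximum of 400 μM for trans-chalcone and 100 μM for 2'-hydroxychalcone. Cultures were seeded at OD600 0.5, or 0.25 for B. subtilis, and growth was followed as 620 nm backscatter in a BioLector at 1200 rpm. Final backscatter, growth rate and lag phase were compared with DMSO controls.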

Bacillus subtilis 168 = experiment: Bacterial growth in microscale cultivation, B. subtilis; settings: relative to control
How it was run: as §1

[2] = test system: Escherichia coli K-12 MG1655; experiment: Bacterial growth in microscale cultivation, E. coli; settings: relative to control; for activity at 4 µM / activity at 40 µM / activity at 400 µM / activity at 0.4 µM: Escherichia coli
How it was run: as §1

[3] = ATCC13032, complex medium, 4 µM, read-out: Final Backscatter
[4] = ATCC13032, complex medium, 4 µM, read-out: Growth rate
[5] = ATCC13032, complex medium, 40 µM, read-out: Final Backscatter
[6] = ATCC13032, complex medium, 40 µM, read-out: Growth rate
[7] = ATCC13032, minimal medium, 4 µM, read-out: Final Backscatter
[8] = ATCC13032, minimal medium, 4 µM, read-out: Growth rate
[9] = ATCC13032, minimal medium, 40 µM, read-out: Final Backscatter
[10] = ATCC13032, minimal medium, 40 µM, read-out: Growth rate
[11] = Bacillus subtilis, 168, complex medium, 4 µM, read-out: Final Backscatter
[12] = Bacillus subtilis, 168, complex medium, 4 µM, read-out: Growth rate
[13] = Bacillus subtilis, 168, complex medium, 40 µM, read-out: Final Backscatter
[14] = Bacillus subtilis, 168, complex medium, 40 µM, read-out: Growth rate
[15] = Bacillus subtilis, 168, minimal medium, 4 µM, read-out: Final Backscatter
[16] = Bacillus subtilis, 168, minimal medium, 4 µM, read-out: Growth rate
[17] = Bacillus subtilis, 168, minimal medium, 40 µM, read-out: Final Backscatter
[18] = Bacillus subtilis, 168, minimal medium, 40 µM, read-out: Growth rate
[19] = MG1655, complex medium, 4 µM, read-out: Final Backscatter
[20] = MG1655, complex medium, 4 µM, read-out: Growth rate
[21] = MG1655, complex medium, 40 µM, read-out: Final Backscatter
[22] = MG1655, complex medium, 40 µM, read-out: Growth rate
[23] = MG1655, minimal medium, 4 µM, read-out: Final Backscatter
[24] = MG1655, minimal medium, 4 µM, read-out: Growth rate
[25] = MG1655, minimal medium, 40 µM, read-out: Final Backscatter
[26] = MG1655, minimal medium, 40 µM, read-out: Growth rate

O=C(/C=C/c1ccccc1O)c1ccc(O)cc1O [Compound 7, 2′,4′,2-Trihydroxychalcone]
activity at 4 µM [1, 3]: 100%
activity at 4 µM [1, 4]: 99.1%
activity at 40 µM [1, 5]: 98.3%
activity at 40 µM [1, 6]: 98.8%
activity at 400 µM ([1]; ATCC13032, complex medium, 400 µM, read-out: Final Backscatter): 110%
activity at 400 µM ([1]; ATCC13032, complex medium, 400 µM, read-out: Growth rate): 91.2%
activity at 4 µM [1, 7]: 98.1%
activity at 4 µM [1, 8]: 102%
activity at 40 µM [1, 9]: 101%
activity at 40 µM [1, 10]: 98.7%
activity at 400 µM ([1]; ATCC13032, minimal medium, 400 µM, read-out: Final Backscatter): 94.3%
activity at 400 µM ([1]; ATCC13032, minimal medium, 400 µM, read-out: Growth rate): 52.9%
Lag Phase ([1]; complex medium, 4 µM): 101,6%
Lag Phase ([1]; complex medium, 40 µM): 106,3%
Lag Phase ([1]; complex medium, 400 µM): 141,2%
Lag Phase ([1]; minimal medium, 4 µM): 100,0%
Lag Phase ([1]; minimal medium, 40 µM): 103,0%
Lag Phase ([1]; minimal medium, 400 µM): 181,9%
activity at 4 µM (Bacillus subtilis 168; [11]): 99.9%
activity at 4 µM (Bacillus subtilis 168; [12]): 95.9%
activity at 40 µM (Bacillus subtilis 168; [13]): 102%
activity at 40 µM (Bacillus subtilis 168; [14]): 104%
activity at 400 µM (Bacillus subtilis 168; Bacillus subtilis, 168, complex medium, 400 µM, read-out: Final Backscatter): 98.3%
activity at 400 µM (Bacillus subtilis 168; Bacillus subtilis, 168, complex medium, 400 µM, read-out: Growth rate): 92.5%
activity at 4 µM (Bacillus subtilis 168; [15]): 98.8%
activity at 4 µM (Bacillus subtilis 168; [16]): 107%
activity at 40 µM (Bacillus subtilis 168; [17]): 98.5%
activity at 40 µM (Bacillus subtilis 168; [18]): 107%
activity at 400 µM (Bacillus subtilis 168; Bacillus subtilis, 168, minimal medium, 400 µM, read-out: Final Backscatter): 95.3%
activity at 400 µM (Bacillus subtilis 168; Bacillus subtilis, 168, minimal medium, 400 µM, read-out: Growth rate): 70.4%
Lag Phase (Bacillus subtilis 168; complex medium, 4 µM): 100,0%
Lag Phase (Bacillus subtilis 168; complex medium, 40 µM): 107,1%
Lag Phase (Bacillus subtilis 168; complex medium, 400 µM): 185,2%
Lag Phase (Bacillus subtilis 168; minimal medium, 4 µM): 104,9%
Lag Phase (Bacillus subtilis 168; minimal medium, 40 µM): 106,1%
Lag Phase (Bacillus subtilis 168; minimal medium, 400 µM): 143,2%
activity at 4 µM [2, 19]: 97.2%
activity at 4 µM [2, 20]: 93.3%
activity at 40 µM [2, 21]: 97.3%
activity at 40 µM [2, 22]: 90.7%
activity at 400 µM ([2]; MG1655, complex medium, 400 µM, read-out: Final Backscatter): 93%
activity at 400 µM ([2]; MG1655, complex medium, 400 µM, read-out: Growth rate): 104%
activity at 4 µM [2, 23]: 98.2%
activity at 4 µM [2, 24]: 99.2%
activity at 40 µM [2, 25]: 97.2%
activity at 40 µM [2, 26]: 105%
activity at 400 µM ([2]; MG1655, minimal medium, 400 µM, read-out: Final Backscatter): 97.4%
activity at 400 µM ([2]; MG1655, minimal medium, 400 µM, read-out: Growth rate): 103%
Lag Phase ([2]; complex medium, 4 µM): 107,4%
Lag Phase ([2]; complex medium, 40 µM): 111,1%
Lag Phase ([2]; complex medium, 400 µM): 118,5%
Lag Phase ([2]; minimal medium, 4 µM): 88,9%
Lag Phase ([2]; minimal medium, 40 µM): 99,0%
Lag Phase ([2]; minimal medium, 400 µM): 99,3%

O=C(/C=C/c1ccc(O)c(O)c1)c1ccc(O)cc1O [Compound 8, 2′,4′,3,4-Tetrahydroxy-chalcone]
activity at 0.4 µM ([1]; ATCC13032, complex medium, 0.4 µM, read-out: Final Backscatter): 96.6%
activity at 0.4 µM ([1]; ATCC13032, complex medium, 0.4 µM, read-out: Growth rate): 114%
activity at 4 µM [1, 3]: 107%
activity at 4 µM [1, 4]: 134%
activity at 40 µM [1, 5]: 108%
activity at 40 µM [1, 6]: 129%
activity at 0.4 µM ([1]; ATCC13032, minimal medium, 0.4 µM, read-out: Final Backscatter): 99%
activity at 0.4 µM ([1]; ATCC13032, minimal medium, 0.4 µM, read-out: Growth rate): 103%
activity at 4 µM [1, 7]: 101%
activity at 4 µM [1, 8]: 96.6%
activity at 40 µM [1, 9]: 103%
activity at 40 µM [1, 10]: 102%
Lag Phase ([1]; complex medium, 0.4 µM): 109,9%
Lag Phase ([1]; complex medium, 4 µM): 95,4%
Lag Phase ([1]; complex medium, 40 µM): 84,9%
Lag Phase ([1]; minimal medium, 0.4 µM): 99,3%
Lag Phase ([1]; minimal medium, 4 µM): 98,6%
Lag Phase ([1]; minimal medium, 40 µM): 100,7%
activity at 0.4 µM (Bacillus subtilis 168; Bacillus subtilis, 168, complex medium, 0.4 µM, read-out: Final Backscatter): 98.1%
activity at 0.4 µM (Bacillus subtilis 168; Bacillus subtilis, 168, complex medium, 0.4 µM, read-out: Growth rate): 98.2%
activity at 4 µM (Bacillus subtilis 168; [11]): 100%
activity at 4 µM (Bacillus subtilis 168; [12]): 111%
activity at 40 µM (Bacillus subtilis 168; [13]): 98.9%
activity at 40 µM (Bacillus subtilis 168; [14]): 109%
activity at 0.4 µM (Bacillus subtilis 168; Bacillus subtilis, 168, minimal medium, 0.4 µM, read-out: Final Backscatter): 85.1%
activity at 0.4 µM (Bacillus subtilis 168; Bacillus subtilis, 168, minimal medium, 0.4 µM, read-out: Growth rate): 106%
activity at 4 µM (Bacillus subtilis 168; [15]): 92.1%
activity at 4 µM (Bacillus subtilis 168; [16]): 105%
activity at 40 µM (Bacillus subtilis 168; [17]): 94.2%
activity at 40 µM (Bacillus subtilis 168; [18]): 95.7%
Lag Phase (Bacillus subtilis 168; complex medium, 0.4 µM): 98,3%
Lag Phase (Bacillus subtilis 168; complex medium, 4 µM): 86,5%
Lag Phase (Bacillus subtilis 168; complex medium, 40 µM): 105,1%
Lag Phase (Bacillus subtilis 168; minimal medium, 0.4 µM): 107,5%
Lag Phase (Bacillus subtilis 168; minimal medium, 4 µM): 110,3%
Lag Phase (Bacillus subtilis 168; minimal medium, 40 µM): 90,4%
activity at 0.4 µM ([2]; MG1655, complex medium, 0.4 µM, read-out: Final Backscatter): 98.9%
activity at 0.4 µM ([2]; MG1655, complex medium, 0.4 µM, read-out: Growth rate): 102%
activity at 4 µM [2, 19]: 102%
activity at 4 µM [2, 20]: 95%
activity at 40 µM [2, 21]: 95.7%
activity at 40 µM [2, 22]: 89.4%
activity at 0.4 µM ([2]; MG1655, minimal medium, 0.4 µM, read-out: Final Backscatter): 92.9%
activity at 0.4 µM ([2]; MG1655, minimal medium, 0.4 µM, read-out: Growth rate): 83.9%
activity at 4 µM [2, 23]: 94.1%
activity at 4 µM [2, 24]: 86.4%
activity at 40 µM [2, 25]: 96.6%
activity at 40 µM [2, 26]: 85.3%
Lag Phase ([2]; complex medium, 0.4 µM): 103,3%
Lag Phase ([2]; complex medium, 4 µM): 96,7%
Lag Phase ([2]; complex medium, 40 µM): 100,0%
Lag Phase ([2]; minimal medium, 0.4 µM): 96,2%
Lag Phase ([2]; minimal medium, 4 µM): 98,1%
Lag Phase ([2]; minimal medium, 40 µM): 98,1%

Reference: paper PMC4893628, “Chalcone-based Selective Inhibitors of a C4 Plant Key Enzyme as Novel Potential Herbicides” (Scientific Reports, 2016)
